IC50 data for 46 compounds are collected here from patent publication US8906909B2 (Curis, Inc., priority 2009, dated 2014).

Where only a bound is given, the exact number is not on record here.

The subject of this experiment is HDACs (HeLa cell nuclear extracts). Put plainly: HDAC enzymatic activity, Biomol Color de Lys system. It is filed as biochemical. The procedure: (e) An In Vitro Assay which Determines the Ability of a Test Compound to Inhibit HDAC Enzymatic Activity.
HDAC inhibitory activity was assessed using the Biomol Color de Lys system (AK-500, Biomol, Plymouth Meeting, Pa.). Briefly, HeLa cell nuclear extracts were used as a source of HDACs. Different concentrations of test compounds were serially diluted in dimethylsulphoxide (DMSO) and added to HeLa cell nuclear extracts in the presence of a colorimetric artificial substrate. Final assay condition contained 50 mM Tris/Cl, pH 8.0, 137 mM NaCl, 2.7 mM KCl and 1 mM MgCl2. Reactions were carried in room temperature (25° C.) for 1 hour before addition of developer for termination. Relative enzyme activity was measured in the WALLAC Victor II 1420 microplate reader as floorescence intensity (excitation: 350-380 nm; emission: 440-460 nm). Data were analyzed using GraphPad Prism (v4.0a) with a sigmoidal dose response curve fitting for IC50 calculation.
`O=C(NO)c1ccc2c(ccn2Cc2cc3nc(-c4cccc5[nH]ncc45)nc(N4CCOCC4)c3s2)c1` [Compound 105] returned a half-maximal inhibitory concentration (IC50) of 100 to 1000 nM.
Consider `Nc1ccc(-c2nc(N3CCOCC3)c3sc(CN(CCO)c4ncc(C(=O)NO)cn4)cc3n2)cc1F` [Compound 277], for which the IC50 was < 100 nM.
In the case of `CN(Cc1cc2nc(-c3cccc4[nH]ncc34)nc(N3CCNCC3)c2s1)c1ncc(C(=O)NO)cn1` [Compound 60] it was < 100 nM; in that of `CC1CN(c2nc(-c3cccc4[nH]ncc34)nc3cc(CN(C)c4ncc(C(=O)NO)cn4)sc23)CC(C)O1` (stereo not shown) [Compound 65], < 100 nM; in that of `O=C(/C=C/c1ccc(S(=O)(=O)Nc2cc3nc(-c4cccc5[nH]ncc45)nc(N4CCOCC4)c3s2)cc1)NO` [Compound 50], < 100 nM.
Take `Cn1cc(CNc2cc3nc(-c4cccc5[nH]ncc45)nc(N4CCOCC4)c3s2)c2cc(C(=O)NO)ccc21` [Compound 106]: the IC50 lay within 1000 to 10000 nM.
For the compound `CN(Cc1cc2nc(-c3cccc4[nH]c(=S)[nH]c34)nc(N3CCOCC3)c2s1)c1ncc(C(=O)NO)cn1` [Compound 315], the IC50 is < 100 nM.
In the case of `CN1CCN(c2nc(-c3cccc4[nH]ncc34)nc3cc(CN(C)c4ncc(C(=O)NO)cn4)sc23)CC1` [Compound 61] it was < 100 nM.
Compound `CNc1ccc(-c2nc(N3CCOCC3)c3sc(CN(C)Cc4nc5cc(/C=C/C(=O)NO)ccc5n4C)cc3n2)cn1` [Compound 329] yielded an IC50 of 100 to 1000 nM.
Next, `CN(Cc1cc2nc(-c3ccc4c(c3)CCN4)nc(N3CCOCC3)c2s1)c1ncc(C(=O)NO)cn1` [Compound 193]: < 100 nM; `COc1cccc(Nc2nc(-c3cccc4[nH]ncc34)nc3cc(CN(C)c4ncc(C(=O)NO)cn4)sc23)c1` [Compound 166]: < 100 nM; `COc1ncc(-c2nc(N3CCOCC3)c3sc(C(C)(C)N(C)c4ncc(C(=O)NO)cn4)cc3n2)cn1` [Compound 264]: < 100 nM.
In the case of `CS(=O)(=O)N1CCN(Cc2cc3nc(-c4cccc5[nH]ncc45)nc(NCCCCC(=O)NO)c3s2)CC1` [Compound 34] it was 100 to 1000 nM.
With `O=C(CCCCCCNc1cc2nc(-c3cccc4[nH]ncc34)nc(N3CCOCC3)c2s1)NO` [Compound 20], the IC50 was < 100 nM.
Next, `COc1ccc(-c2nc(N3CCOCC3)c3sc(CN(CCO)c4ncc(C(=O)NO)cn4)cc3n2)cn1` [Compound 265]: < 100 nM; `CN(Cc1cc2nc(-c3ccc(N)cc3)nc(N3CCOCC3)c2s1)c1ccc(C(=O)NO)cc1` [Compound 206]: < 100 nM.
`O=C(CCCCNc1cc2nc(-c3cccc4[nH]ncc34)nc(N3CCOCC3)c2s1)NO` [Compound 18]: the IC50 is < 100 nM.
In the case of `CN(Cc1cc2nc(-c3cccc4[nH]ncc34)nc(NCCO)c2s1)c1ncc(C(=O)NO)cn1` [Compound 161] it was < 100 nM; in that of `COc1ccc(-c2nc(N3CCOCC3)c3sc(NCCCCC(=O)NO)cc3n2)cn1` [Compound 230], < 100 nM; in that of `CN(Cc1cc2nc(-c3ccc(N)cc3)nc(N3CCOCC3)c2s1)Cc1nc2cc(/C=C/C(=O)NO)ccc2n1C` [Compound 327], 100 to 1000 nM.
In the case of `CN(c1ncc(C(=O)NO)cn1)c1cc2nc(-c3ccc(N)cc3)nc(N3CCOCC3)c2s1` [Compound 272] it was < 100 nM.
Next, `CC(C)C(=O)Nc1ccc(-c2nc(N3CCOCC3)c3sc(CN(C)c4ncc(C(=O)NO)cn4)cc3n2)cc1` [Compound 286]: < 100 nM; `CC(=O)NCCN(Cc1cc2nc(-c3cccc4[nH]ncc34)nc(N3CCOCC3)c2s1)c1ncc(C(=O)NO)cn1` [Compound 96]: < 100 nM.
Compound `Nc1ccc(-c2nc(N3CCOCC3)c3sc(S(=O)(=O)NCC4CCN(c5ncc(C(=O)NO)cn5)CC4)cc3n2)cc1` [Compound 309] had an IC50 of 100 to 1000 nM.
Take `COc1ncc(-c2nc(N3CCOCC3)c3sc(NS(=O)(=O)c4cccc(/C=C/C(=O)NO)c4)cc3n2)cn1` [Compound 220]: the IC50 is < 100 nM.
Next, `Cn1cc(-c2nc(N3CCOCC3)c3sc(CN(CCO)c4ncc(C(=O)NO)cn4)cc3n2)cn1` [Compound 313]: < 100 nM; `O=C(NO)c1ccc(CNCc2cc3nc(-c4cccc5[nH]ncc45)nc(N4CCOCC4)c3s2)cc1` [Compound 203]: 100 to 1000 nM; `COc1ccc(-c2nc(N3CCOCC3)c3sc(C(C)N(C)c4ncc(C(=O)NO)cn4)cc3n2)cn1` (stereo not shown) [Compound 247, N-hydroxy-2-((1-(2-(6-methoxypyridin-3-yl)-4-morpholinothieno[3,2-d]pyrimidin-6-yl)ethyl)(methyl)amino)pyrimidine-5-carboxamide]: < 100 nM.
In the case of `CC(=O)N1CCN(c2nc(-c3cccc4[nH]ncc34)nc3cc(CN(C)c4ncc(C(=O)NO)cn4)sc23)CC1` [Compound 62] it was < 100 nM.
The compound `COc1ccc(-c2nc(N3CCOCC3)c3sc(Nc4ncc(C(=O)NO)cn4)cc3n2)cn1` [Compound 253] displayed an IC50 of 100 to 1000 nM.
Next, `CCN(Cc1cc2nc(-c3ccc(N)cc3)nc(N3CCOCC3)c2s1)c1ncc(C(=O)NO)cn1` [Compound 215]: < 100 nM; `CC(C)(Nc1ncc(C(=O)NO)cn1)c1cc2nc(-c3cccc4[nH]ncc34)nc(N3CCOCC3)c2s1` [Compound 71]: < 100 nM; `CN(Cc1cc2nc(-c3ccc4c(c3)NC(=O)CO4)nc(N3CCOCC3)c2s1)c1ncc(C(=O)NO)cn1` [Compound 183]: < 100 nM.
`O=C(/C=C/c1cc2nc(-c3cccc4[nH]ncc34)nc(N3CCOCC3)c2s1)NO` [Compound 46] registered an IC50 of 1000 to 10000 nM.
In the case of `Cc1c(CN(C)c2ncc(C(=O)NO)cn2)sc2c(N3CCOCC3)nc(-c3cccc4[nH]ncc34)nc12` [Compound 68] it was < 100 nM.
In the case of `O=C(/C=C/c1ccc(CNCc2cc3nc(-c4cccc5[nH]ncc45)nc(N4CCOCC4)c3s2)cc1)NO` [Compound 204] it was 100 to 1000 nM.
Next, `COc1ncc(-c2nc(N3CCOCC3)c3sc(NS(=O)(=O)c4ccc(/C=C/C(=O)NO)cc4)cc3n2)cn1` [Compound 219]: < 100 nM; `CC1COCC(C)N1c1nc(-c2cccc3[nH]ncc23)nc2cc(CN(C)c3ncc(C(=O)NO)cn3)sc12` (stereo not shown) [Compound 66]: < 100 nM; `O=C(CCCCCNc1cc2nc(-c3cccc4[nH]ncc34)nc(N3CCOCC3)c2s1)NO` [Compound 19]: < 100 nM.
`CN(Cc1cc2nc(-c3cnc(OCc4ccccc4)nc3)nc(N3CCOCC3)c2s1)c1ncc(C(=O)NO)cn1` [Compound 266]: the IC50 is < 100 nM.
With `NC(=O)CN(Cc1cc2nc(-c3cccc4[nH]ncc34)nc(N3CCOCC3)c2s1)c1ncc(C(=O)NO)cn1` [Compound 97], the IC50 is < 100 nM.
In the case of `CN(C)c1nc(-c2cccc3[nH]ncc23)nc2cc(CN(C)c3ncc(C(=O)NO)cn3)sc12` [Compound 159] it was < 100 nM.
Take `Nc1ccc(-c2nc(N3CCOCC3)c3sc(CN(CCO)c4ncc(C(=O)NO)cn4)cc3n2)cc1` [Compound 274]: the IC50 is < 100 nM.
As to `COc1ccccc1Nc1nc(-c2cccc3[nH]ncc23)nc2cc(CN(C)c3ncc(C(=O)NO)cn3)sc12` [Compound 167], the half-maximal inhibitory concentration (IC50) is < 100 nM.
In the case of `C#CCCN(Cc1cc2nc(-c3cccc4[nH]ncc34)nc(N3CCOCC3)c2s1)c1ncc(C(=O)NO)cn1` [Compound 98], the IC50 is < 100 nM.
In the case of `CN(Cc1cc2cc(-c3cccc4[nH]ncc34)nc(N3CCOCC3)c2s1)c1ncc(C(=O)NO)cn1` [Compound 74] it was < 100 nM.
